Earlier results, collected in PMC9762682, “Tocotrienols: Exciting Biological and Pharmacological Properties of Tocotrienols and Naturally Occurring Compounds, Part II” (Annals of clinical case reports, 2022).
pIC50: −log10 of the molar value. Structures can show the parent of a compound that is named as a salt. Where two headings read alike, the source gives them in different places. Marks after values point to notes of the source that are not given here.

What was measured:
T-cells (Jurkat) = system: T-cells (Jurkat); design: method as in PMID 29606130; value at effective dose: unit not given here
Prostate cancer cells = system: Prostate cancer cells; design: method as in PMID 29606130; value at effective dose: scale not given here; details: for effective dose / percentage of control at effective dose / value at effective dose: 48 h;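 for pIC50: anti-proliferation of cancer cells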
Lung cancer cells = system: Lung cancer cells; design: method as in PMID 29606130; value at effective dose: unit not given here
Breast cancer cells = system: Breast cancer cells; design: method as in PMID 29606130; value at effective dose: unit not given here;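 for pIC50: anti-proliferation of cancer cells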
Liver cancer cells = system: Liver cancer cells; design: method as in PMID 29606130; value at effective dose: unit not given here; details: for effective dose / percentage of control at effective dose / value at effective dose: 48 h
Pancreas cancer cells = system: Pancreas cancer cells; design: method as in PMID 29606130; value at effective dose: unit not given here; details: for effective dose / percentage of control at effective dose / value at effective dose: 48 h
Melanoma cells = system: Melanoma cells; design: method as in PMID 29606130
B-Lymphocyte cells = system: B-Lymphocyte cells; design: method as in PMID 29606130; value at effective dose: unit not given here;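 for pIC50: anti-proliferation of cancer cells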
Hela cells = system: Hela cells; design: method as in PMID 29606130; value at effective dose: unit not given here; details: for effective dose / percentage of control at effective dose / value at effective dose: 48 h;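 for pIC50: anti-proliferation of cancer cells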
[1] = design: method as in ref 14 = [14]; PMID 27493840; doi:10.4172/2155-9880.1000434; 14. Qureshi AA , Khan DA , Saleem S , Silswal N , Trias AM , Tan B , Pharmacokinetics and bioavailability of Annatto δ-tocotrienol in healthy fed subjects . J Clin Exp Cardiol . 2015; 6 : 11 . 10.417; details: for Elimination of Half-life time (t1/2) / Elimination rate constant (ke) / Plasma Peak Concentration (Cmax) / Time to achieve plasma peak (Tmax): healthy fed subjects
[2] = design: method as in ref 16 = [16]; PMID 27493840; doi:10.4172/2155-9880.1000434; 16. Qureshi AA , Khan DA , Silswal N , Saleem S , Qureshi N . Evaluation of pharmacokinetics and bioavailability of higher doses of δ-tocotrienol in healthy fed humans . J Clin Exp Cardiol . 2016; 7
[3] = plasma tocol after single 125 mg δ-tocotrienol dose
[4] = plasma tocol after single 250 mg δ-tocotrienol dose
[5] = plasma tocol after single 500 mg δ-tocotrienol dose

COc1cc2c(cc1O)CC[C@@H]1[C@@H]2CC[C@]2(C)[C@@H](O)CC[C@@H]12 [2-Methoxyestradiol]
effective dose (T-cells (Jurkat)): 5 µM | percentage of control at IC50 dose (T-cells (Jurkat)): 8% | percentage of control at effective dose (T-cells (Jurkat)): 8% | value at effective dose (T-cells (Jurkat)): 31.3 ± 5.7 | percentage of control at IC50 dose (Prostate cancer cells): 39% | effective dose (Prostate cancer cells): 10 µM | percentage of control at effective dose (Prostate cancer cells): 30% | value at effective dose (Prostate cancer cells): 1.7 ± 1.5 | effective dose (Lung cancer cells): 10 µM | percentage of control at IC50 dose (Lung cancer cells): 17% | percentage of control at effective dose (Lung cancer cells): 11% | value at effective dose (Lung cancer cells): 2.3 ± 1.5 | pIC50 (Breast cancer cells): 5.00 | effective dose (Breast cancer cells): 20 µM | percentage of control at IC50 dose (Breast cancer cells): 45% | percentage of control at effective dose (Breast cancer cells): 44% | value at effective dose (Breast cancer cells): 8.0 ± 2.0 | pIC50 (Liver cancer cells): 5.30 | percentage of control at IC50 dose (Liver cancer cells): 45% | effective dose (Liver cancer cells): 10 µM | percentage of control at effective dose (Liver cancer cells): 27% | value at effective dose (Liver cancer cells): 19.7 ± 2.1 | pIC50 (Pancreas cancer cells): 4.40 | percentage of control at IC50 dose (Pancreas cancer cells): 42% | effective dose (Pancreas cancer cells): 40 µM | percentage of control at effective dose (Pancreas cancer cells): 42% | value at effective dose (Pancreas cancer cells): 20.0 ± 2.0 | effective dose (Melanoma cells): 10 µM | percentage of control at IC50 dose (Melanoma cells): 25% | percentage of control at effective dose (Melanoma cells): 11% | effective dose (B-Lymphocyte cells): 5 µM | percentage of control at IC50 dose (B-Lymphocyte cells): 5% | percentage of control at effective dose (B-Lymphocyte cells): 33% | value at effective dose (B-Lymphocyte cells): 4.0 ± 2.0 | pIC50 (Hela cells): 5.60 | percentage of control at IC50 dose (Hela cells): 48% | effective dose (Hela cells): 20 µM | percentage of control at effective dose (Hela cells): 13% | value at effective dose (Hela cells): 4.3 ± 1.5

O=C1C[C@@H]2[C@@H](CO)[C@H](O)C[C@@H]2O1 [(−) Corey Lactone]
pIC50 (T-cells (Jurkat)): 4.10 | effective dose (T-cells (Jurkat)): 40 µM | percentage of control at IC50 dose (T-cells (Jurkat)): 29% | percentage of control at effective dose (T-cells (Jurkat)): 64% | value at effective dose (T-cells (Jurkat)): 280.3 ± 10.2 | pIC50 (Prostate cancer cells): 4.10 | percentage of control at IC50 dose (Prostate cancer cells): 51% | effective dose (Prostate cancer cells): 40 µM | percentage of control at effective dose (Prostate cancer cells): 60% | value at effective dose (Prostate cancer cells): 23.3 ± 2.1 | pIC50 (Lung cancer cells): 4.10 | effective dose (Lung cancer cells): 40 µM | percentage of control at IC50 dose (Lung cancer cells): 44% | percentage of control at effective dose (Lung cancer cells): 64% | value at effective dose (Lung cancer cells): 17.3 ± 3.8 | pIC50 (Breast cancer cells): 4.10 | effective dose (Breast cancer cells): 40 µM | percentage of control at IC50 dose (Breast cancer cells): 55% | percentage of control at effective dose (Breast cancer cells): 77% | value at effective dose (Breast cancer cells): 17.7 ± 3.2 | pIC50 (Liver cancer cells): 4.10 | percentage of control at IC50 dose (Liver cancer cells): 56% | effective dose (Liver cancer cells): 80 µM | percentage of control at effective dose (Liver cancer cells): 56% | value at effective dose (Liver cancer cells): 31.7 ± 2.1 | pIC50 (Pancreas cancer cells): 4.10 | percentage of control at IC50 dose (Pancreas cancer cells): 54% | effective dose (Pancreas cancer cells): 40 µM | percentage of control at effective dose (Pancreas cancer cells): 58% | value at effective dose (Pancreas cancer cells): 30.7 ± 1.2 | pIC50 (Melanoma cells): 4.10 | effective dose (Melanoma cells): 40 µM | percentage of control at IC50 dose (Melanoma cells): 46% | percentage of control at effective dose (Melanoma cells): 62% | pIC50 (B-Lymphocyte cells): 4.40 | effective dose (B-Lymphocyte cells): 20 µM | percentage of control at IC50 dose (B-Lymphocyte cells): 37% | percentage of control at effective dose (B-Lymphocyte cells): 59% | value at effective dose (B-Lymphocyte cells): 5.3 ± 1.5 | effective dose (Hela cells): 80 µM | percentage of control at effective dose (Hela cells): 66% | value at effective dose (Hela cells): 36.0 ± 5.6

N=C(N)NC(=O)c1nc(Cl)c(N)nc1N [Amiloride-HCL]
effective dose (T-cells (Jurkat)): 20 µM | percentage of control at effective dose (T-cells (Jurkat)): 38% | value at effective dose (T-cells (Jurkat)): 132.7 ± 2.1 | effective dose (Prostate cancer cells): 80 µM | percentage of control at effective dose (Prostate cancer cells): 70% | value at effective dose (Prostate cancer cells): 27.0 ± 4.6 | effective dose (Lung cancer cells): 40 µM | percentage of control at effective dose (Lung cancer cells): 86% | value at effective dose (Lung cancer cells): 23.3 ± 2.5 | pIC50 (Breast cancer cells): 4.40 | effective dose (Breast cancer cells): 20 µM | percentage of control at IC50 dose (Breast cancer cells): 52% | percentage of control at effective dose (Breast cancer cells): 61% | value at effective dose (Breast cancer cells): 14.0 ± 5.3 | percentage of control at IC50 dose (Liver cancer cells): 56% | effective dose (Liver cancer cells): 40 µM | percentage of control at effective dose (Liver cancer cells): 65% | value at effective dose (Liver cancer cells): 36.7 ± 2.5 | effective dose (Pancreas cancer cells): 80 µM | percentage of control at effective dose (Pancreas cancer cells): 69% | value at effective dose (Pancreas cancer cells): 30.7 ± 1.2 | effective dose (Melanoma cells): 40 µM | percentage of control at effective dose (Melanoma cells): 90% | pIC50 (B-Lymphocyte cells): 4.40 | effective dose (B-Lymphocyte cells): 20 µM | percentage of control at IC50 dose (B-Lymphocyte cells): 48% | percentage of control at effective dose (B-Lymphocyte cells): 56% | value at effective dose (B-Lymphocyte cells): 5.0 ± 1.0 | pIC50 (Hela cells): 5.00 | percentage of control at IC50 dose (Hela cells): 51% | effective dose (Hela cells): 80 µM | percentage of control at effective dose (Hela cells): 36% | value at effective dose (Hela cells): 19.7 ± 1.5

Cc1cc(O)cc2c1O[C@](C)(CCC[C@H](C)CCC[C@H](C)CCCC(C)C)CC2 [δ-Tocopherol]
time of appearance in the plasma ([1]; after δ-tocotrienol administration to well-fed subjects): > 2 h | Elimination of Half-life time (t1/2) [1, 3]: 3.25 ± 0.79^a h | Elimination rate constant (ke) [1, 3]: 0.118 ± 0.032^a h-1 | Plasma Peak Concentration (Cmax) [1, 3]: 341.18 ± 62.19^a ng/mL | Time to achieve plasma peak (Tmax) [1, 3]: 6.00 h | Elimination of Half-life time (t1/2) [1, 4]: 5.22 ± 0.62^b h | Elimination rate constant (ke) [1, 4]: 0.076 ± 0.008^b h-1 | Plasma Peak Concentration (Cmax) [1, 4]: 756.27 ± 72.70^b ng/mL | Time to achieve plasma peak (Tmax) [1, 4]: 4.18 ± 0.60 h | Elimination of Half-life time (t1/2) [1, 5]: 3.58 ± 0.67^a h | Elimination rate constant (ke) [1, 5]: 0.183 ± 0.027^c h-1 | Plasma Peak Concentration (Cmax) [1, 5]: 1027.73 ± 71.93^c ng/mL | Time to achieve plasma peak (Tmax) [1, 5]: 3.00 h | plasma tocol level ([2]; 0 Hr., single dose 750 mg δ-tocotrienol): 894 ± 69 ng/mL | plasma tocol level ([2]; 0 Hr., single dose 1000 mg δ-tocotrienol): 888 ± 22 ng/mL | plasma tocol level ([2]; 1 hr., single dose 750 mg δ-tocotrienol): 949 ± 11 ng/mL | plasma tocol level ([2]; 1 hr., single dose 1000 mg δ-tocotrienol): 986 ± 18 ng/mL | plasma tocol level ([2]; 2 hr., single dose 750 mg δ-tocotrienol): 1195 ± 69 ng/mL | plasma tocol level ([2]; 2 hr., single dose 1000 mg δ-tocotrienol): 1266 ± 25 ng/mL | plasma tocol level ([2]; 4 hr., single dose 750 mg δ-tocotrienol): 1348 ± 93 ng/mL | plasma tocol level ([2]; 4 hr., single dose 1000 mg δ-tocotrienol): 1473 ± 71 ng/mL | plasma tocol level ([2]; 6 hr., single dose 750 mg δ-tocotrienol): 726 ± 51 ng/mL | plasma tocol level ([2]; 6 hr., single dose 1000 mg δ-tocotrienol): 765 ± 44 ng/mL | plasma tocol level ([2]; 8 hr., single dose 750 mg δ-tocotrienol): 432 ± 45 ng/mL | plasma tocol level ([2]; 8 hr., single dose 1000 mg δ-tocotrienol): 500 ± 25 ng/mL | Total tocols (sum of 0-8 h) ([2]; single dose 750 mg δ-tocotrienol): 5544 ng/mL | Total tocols (sum of 0-8 h) ([2]; single dose 750 mg δ-tocotrienol, listed as δ-tocopherol): 13117 ng/mL | Total tocols (sum of 0-8 h) ([2]; single dose 1000 mg δ-tocotrienol): 5878 ng/mL
